Source: patent US20190322676A1, “CERAMIDE GALACTOSYLTRANSFERASE INHIBITORS FOR THE TREATMENT OF DISEASE” (BioMarin Pharmaceutical Inc., priority 2016, published 2019)
Counter-ions that a name gives are not always drawn.

What follows are compounds tested against T1, human CGT (ceramide galactosyltransferase), CHO/CGT lysate (Homo sapiens, UniProt Q16880) (assay: CGT enzyme assay, RapidFire/MS/MS readout (Table 1 ranges with one asterisk *)). Settings: RapidFire method (range with one asterisk *).
T1 construct: Full-length human CGT cDNA was cloned into the BamH1/Xho1 site of pcDNA3.1 (+); expressed in transfected cells; host or cells: Chinese hamster ovary (CHO) cells; lysate prepared with M-PER
T1 sequence (Q16880 21-541): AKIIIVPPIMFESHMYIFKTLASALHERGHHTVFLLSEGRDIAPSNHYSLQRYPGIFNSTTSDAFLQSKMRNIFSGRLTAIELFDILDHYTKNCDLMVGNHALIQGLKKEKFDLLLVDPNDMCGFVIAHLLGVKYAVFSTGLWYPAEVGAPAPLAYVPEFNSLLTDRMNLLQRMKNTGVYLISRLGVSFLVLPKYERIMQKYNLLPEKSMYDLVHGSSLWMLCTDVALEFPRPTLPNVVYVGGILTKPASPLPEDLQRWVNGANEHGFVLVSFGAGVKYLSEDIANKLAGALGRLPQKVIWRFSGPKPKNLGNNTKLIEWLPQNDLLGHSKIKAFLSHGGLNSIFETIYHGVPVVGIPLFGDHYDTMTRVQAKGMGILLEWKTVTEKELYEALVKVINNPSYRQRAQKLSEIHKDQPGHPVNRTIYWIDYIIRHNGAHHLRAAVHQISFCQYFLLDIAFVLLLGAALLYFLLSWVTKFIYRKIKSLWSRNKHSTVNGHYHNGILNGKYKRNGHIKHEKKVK
Format: biochemical
Method in brief: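 Lysate (4 μg) of CHO cells transfected with full-length human CGT incubated 1 h at 37 °C with compound (0.001–50 μM) in pH 7.2 HEPES buffer with 10 μM C6-NBD-dihydro-ceramide, 17.5 μM UDP-galactose, Mg2+/Mn2+, CHAPS, BSA, 0.5% DMSO; ** set also contained 0.01% Tween 80. Product quantified by RapidFire/MS/MS, normalized to internal standard; IC50 from sigmoidal variable-slope fits.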
`CCCCOc1ccc(C(F)(F)[C@H](NS(=O)(=O)c2ccc3cc(OC4CCCC4)ccc3c2)C(=O)N2C3CCC2CC(N)C3)cc1` (stereo partly drawn) [Compound 82-1, N-((2R)-3-(3-amino-8-azabicyclo[3.2.1]octan-8-yl)-1-(4-butoxyphenyl)-1,1-difluoro-3-oxopropan-2-yl)-6-(cyclopentyloxy)naphthalene-2-sulfonamide trifluoroacetate] was tested, and the IC50 was less than 1 µM.
In the case of `CC(C)Oc1ccc2cc(S(=O)(=O)N(C)[C@@H](C(=O)N3C4CCC3CC(N)C4)C(F)(F)c3ccc(Br)cc3)ccc2c1` (stereo partly drawn) [Compound 46-2, N-((2S)-3-(3-amino-8-azabicyclo[3.2.1]octan-8-yl)-1-(4-bromophenyl)-1,1-difluoro-3-oxopropan-2-yl)-6-isopropoxy-N-methylnaphthalene-2-sulfonamide trifluoroacetate], the IC50 is reported as 30 to 100 µM.
For `CN([C@H](C(=O)N1CCC(N)CC1)C(F)(F)c1ccc(Oc2ccccc2)cc1)S(=O)(=O)c1ccc2cc(OC3CCCC3)ccc2c1` [Compound 62-1, (R)—N-(3-(4-aminopiperidin-1-yl)-1,1-difluoro-3-oxo-1-(4-phenoxyphenyl)propan-2-yl)-6-(cyclopentyloxy)-N-methylnaphthalene-2-sulfonamide trifluoroacetate], the IC50 was 1 to 10 µM.
`NC1CC2CCC(C1)N2C(=O)[C@H](NC(=O)[C@H](O)c1ccc2cc(OC3CCCC3)ccc2c1)C(F)(F)c1ccc(Br)cc1` (stereo partly drawn) [Compound 41-4, (2R)—N-((2S)-3-(3-amino-8-azabicyclo[3.2.1]octan-8-yl)-1-(4-bromophenyl)-1,1-difluoro-3-oxopropan-2-yl)-2-(6-(cyclopentyloxy)naphthalen-2-yl)-2-hydroxyacetamide trifluoroacetate] gave an IC50 of 30 to 100 µM.
Compound `NC1CCN(C(=O)[C@H](NS(=O)(=O)c2ccc(OCC3CCCCC3)cc2)C(F)(F)c2ccc(Oc3ccccc3)cc2)CC1` [Compound 63-2, (S)—N-(3-(4-aminopiperidin-1-yl)-1,1-difluoro-3-oxo-1-(4-phenoxyphenyl)propan-2-yl)-4-(cyclohexylmethoxy)benzenesulfonamide trifluoroacetate] has an IC50 of 10 to 30 µM.
For `COc1cc(C(F)(F)[C@H](NS(=O)(=O)c2ccc3cc(OC4CCCC4)ccc3c2)C(=O)N2C3CCC2CC(N)C3)ccc1-c1ccc(Cl)cc1` (stereo partly drawn) [Compound 135-1, N-((2R)-3-(3-amino-8-azabicyclo[3.2.1]octan-8-yl)-1-(4′-chloro-2-methoxy-[1,1′-biphenyl]-4-yl)-1,1-difluoro-3-oxopropan-2-yl)-6-(cyclopentyloxy) naphthalene-2-sulfonamide trifluoroacetate], the IC50 was less than 1 µM.
Compound `NC1CC2CCC(C1)N2C(=O)[C@@H](NS(=O)(=O)c1ccc2cc(OC3CCCC3)ccc2c1)C(F)(F)c1cccc(-c2ccccc2)c1` (stereo partly drawn) [Compound 66-1, N-((2R)-1-([1,1′-biphenyl]-3-yl)-3-(3-amino-8-azabicyclo[3.2.1]octan-8-yl)-1,1-difluoro-3-oxopropan-2-yl)-6-(cyclopentyloxy)naphthalene-2-sulfonamide] has an IC50 of less than 1 µM.
`NC1CC2CCC(C1)N2C(=O)[C@H](NS(=O)(=O)c1ccc2cc(OC3CCC3)ccc2c1)C(F)(F)c1ccc(Br)cc1` (stereo partly drawn) [Compound 47-2, N-((2S)-3-(3-amino-8-azabicyclo[3.2.1]octan-8-yl)-1-(4-bromophenyl)-1,1-difluoro-3-oxopropan-2-yl)-6-cyclobutoxynaphthalene-2-sulfonamide] was tested, and the IC50 was 10 to 30 µM.
Compound `O=C([C@@H](NS(=O)(=O)c1ccc2cc(OC3CCCC3)ccc2c1)C(F)(F)c1ccc(-c2ccc(Cl)cc2)cc1)N1CCNCC1` [Compound 137-1, (R)—N-(1-(4′-chloro-[1,1′-biphenyl]-4-yl)-1,1-difluoro-3-oxo-3-(piperazin-1-yl)propan-2-yl)-6-(cyclopentyloxy)naphthalene-2-sulfonamide trifluoroacetate] has an IC50 of 1 to 10 µM.
Compound `NC1CCN(C(=O)[C@@H](NS(=O)(=O)c2ccc3c(cnn3CC3CCCC3)c2)C(F)(F)c2ccc(-c3ccc(Cl)cc3)cc2)CC1` [Compound 95-1, (R)—N-(3-(4-aminopiperidin-1-yl)-1-(4′-chloro-[1,1′-biphenyl]-4-yl)-1,1-difluoro-3-oxopropan-2-yl)-1-(cyclopentylmethyl)-1H-indazole-5-sulfonamide] has an IC50 of less than 1 µM.
For `NC1CC2CCC(C1)N2C(=O)[C@H](NC(=O)[C@H](O)c1ccc2cc(OC3CCCC3)ccc2c1)C(F)(F)c1ccc(-c2ccc(Cl)cc2)cc1` (stereo partly drawn) [Compound 136-4, (2R)—N-((2S)-3-(3-amino-8-azabicyclo[3.2.1]octan-8-yl)-1-(4′-chloro-[1,1′-biphenyl]-4-yl)-1,1-difluoro-3-oxopropan-2-yl)-2-(6-(cyclopentyloxy)naphthalen-2-yl)-2-hydroxyacetamide trifluoroacetate], the IC50 was 30 to 100 µM.
Compound `NC1CC2CCC(C1)N2C(=O)[C@H](NS(=O)(=O)c1ccc2cc(OC3CCCC3)ccc2c1)C(F)(F)c1cccc(Oc2ccccc2)c1` (stereo partly drawn) [Compound 107-2, N-((2S)-3-(3-amino-8-azabicyclo[3.2.1]octan-8-yl)-1,1-difluoro-3-oxo-1-(3-phenoxyphenyl)propan-2-yl)-6-(cyclopentyloxy)naphthalene-2-sulfonamide] has an IC50 of 1 to 10 µM.
In the case of `NC1CCN(C(=O)[C@H](NS(=O)(=O)c2ccc3cc(OC4CCCC4)ccc3c2)C(F)(F)c2cccc(Oc3ccccc3)c2)CC1` [Compound 108-2, (S)—N-(3-(4-aminopiperidin-1-yl)-1,1-difluoro-3-oxo-1-(3-phenoxyphenyl)propan-2-yl)-6-(cyclopentyloxy)naphthalene-2-sulfonamide], the IC50 is reported as 1 to 10 µM.
In the case of `CN([C@@H](C(=O)N1CCC(N)CC1)C(F)(F)c1ccc(Br)cc1)S(=O)(=O)c1ccc2cc(OC3CCCC3)ccc2c1` [Compound 44-2, (S)—N-(3-(4-aminopiperidin-1-yl)-1-(4-bromophenyl)-1,1-difluoro-3-oxopropan-2-yl)-6-(cyclopentyloxy)-N-methylnaphthalene-2-sulfonamide], the IC50 is reported as 1 to 10 µM.
Compound `NC1CC2CCC(C1)N2C(=O)[C@H](NS(=O)(=O)c1ccc(OCC2CCCCC2)cc1)C(F)(F)c1ccc(C(F)(F)F)cc1` (stereo partly drawn) [Compound 59-2, N-((2S)-3-(3-amino-8-azabicyclo[3.2.1]octan-8-yl)-1,1-difluoro-3-oxo-1-(4-(trifluoromethyl)phenyl)propan-2-yl)-4-(cyclohexylmethoxy) benzenesulfonamide] has an IC50 of 1 to 10 µM.
With `NC1CC2CCC(C1)N2C(=O)[C@H](NS(=O)(=O)c1ccc(OCC2CCCC2)cc1)C(F)(F)c1ccc2cc(Br)ccc2c1` (stereo partly drawn) [Compound 39-2, N-((2S)-3-(3-amino-8-azabicyclo[3.2.1]octan-8-yl)-1-(6-bromonaphthalen-2-yl)-1,1-difluoro-3-oxopropan-2-yl)-4-(cyclopentylmethoxy)benzenesulfonamide trifluoroacetate] the IC50 was 10 to 30 µM.
`CN([C@@H](C(=O)N1C2CCC1CC(N)C2)C(F)(F)c1ccc(Br)cc1)S(=O)(=O)c1ccc2nn(CC3CCCC3)cc2c1` (stereo partly drawn) [Compound 78-2, N-((2S)-3-(3-amino-8-azabicyclo[3.2.1]octan-8-yl)-1-(4-bromophenyl)-1,1-difluoro-3-oxopropan-2-yl)-2-(cyclopentylmethyl)-N-methyl-2H-indazole-5-sulfonamide] gave an IC50 of 30 to 100 µM.
In the case of `NC1CC2CCC(C1)N2C(=O)[C@H](NS(=O)(=O)c1ccc2nn(CC3CCCC3)cc2c1)C(F)(F)c1ccc(Br)cc1` (stereo partly drawn) [Compound 77-2, N-((2S)-3-(3-amino-8-azabicyclo[3.2.1]octan-8-yl)-1-(4-bromophenyl)-1,1-difluoro-3-oxopropan-2-yl)-2-(cyclopentylmethyl)-2H-indazole-5-sulfonamide], the IC50 is reported as 30 to 100 µM.
In the case of `NC1CC2CCC(C1)N2C(=O)[C@@H](NS(=O)(=O)c1ccc2c(cnn2CC2CCCC2)c1)C(F)(F)c1ccc(Br)cc1` (stereo partly drawn) [Compound 74-1, N-((2R)-3-(3-amino-8-azabicyclo[3.2.1]octan-8-yl)-1-(4-bromophenyl)-1,1-difluoro-3-oxopropan-2-yl)-1-(cyclopentylmethyl)-1H-indazole-5-sulfonamide], the IC50 is reported as 1 to 10 µM.
`NC1CCN(C(=O)[C@@H](NS(=O)(=O)c2ccc3cc(OC4CCCC4)ccc3c2)C(F)(F)c2ccc(-c3ccccc3)cc2)CC1` [Compound 43-1, (R)—N-(1-([1,1′-biphenyl]-4-yl)-3-(4-aminopiperidin-1-yl)-1,1-difluoro-3-oxopropan-2-yl)-6-(cyclopentyloxy)naphthalene-2-sulfonamide] was tested, and the IC50 was less than 1 µM.
Compound `NC1CCN(C(=O)[C@@H](NS(=O)(=O)c2ccc3c(cnn3CC3CCCC3)c2)C(F)(F)c2ccc(C(F)(F)F)cc2)CC1` [Compound 93-1, (R)—N-(3-(4-aminopiperidin-1-yl)-1,1-difluoro-3-oxo-1-(4-(trifluoromethyl)phenyl)propan-2-yl)-1-(cyclopentylmethyl)-1H-indazole-5-sulfonamide] has an IC50 of 1 to 10 µM.
Work on `COc1cc(C(F)(F)[C@@H](NS(=O)(=O)c2ccc3cc(OC4CCCC4)ccc3c2)C(=O)N2C3CCC2CC(N)C3)ccc1Cl` (single isomer, unassigned) [Compound 124-2] yielded an IC50 of 1 to 10 µM.
